Results reported in patent publication US20060078630A1, “Method for the production of flavonoid-containing compositions and use thereof” (priority 2003, published 2006).

Tests used:
[1] = Antioxidant effect by the TEAC III method; type: biochemical; conditions: in comparison with Trolox and ascorbic acid
Protocol: The relative antioxidant effect of […] extract was determined by the TEAC III method in comparison with Trolox and ascorbic acid: The TEAC III method and other methods are described in Böhm V. (2000) Ernährungsumschau 47, pages 372-375.

[2] = test system: activated mononuclear cells (lymphocytes); assay: Induction of apoptosis in activated mononuclear cells (cell death detection ELISA); type: cell-based; conditions: individual flavonoids contained in the extracts; FIG. 5b
Protocol: After addition of the additives, the cells were stimulated with 1 μg/ml of phytohaemagglutinin and incubated for 48 h in an incubator. The apoptosis induction was then determined by measuring the oligonucleosomes (low molecular weight DNA fragments) formed in the cells (cell death detection ELISA). […] The apoptosis induction could be blocked by a caspase inhibitor, i.e. is caspase-induced (FIG. 5a).

[3] = test system: phytohaemagglutinin-stimulated mononuclear cells from peripheral blood; assay: Inhibition of proliferation of stimulated mononuclear cells by individual flavonoids (3H-thymidine incorporation); type: cell-based, human; conditions: luteolin, luteolin-7-glucoside, apigenin at 64-2 μg/ml; 1 μg/ml phytohaemagglutinin; 24 h + 18 h 3H-thymidine; FIG. 3b
Protocol: For this purpose, mononuclear cells from the peripheral blood of a health donor were isolated via Ficoll density gradients and incubated in RPMI medium with 5% foetal calf serum in microtitre plates. The cells were incubated in triplicates with the flavonoids luteolin, luteolin-7-glucoside and apigenin. The pure substances were dissolved in 70% ethanol and further diluted in medium. The final concentrations were 64, 32, 16, 8, 4, 2 and 0 μg/ml. After addition of the flavonoids, the cells were stimulated with 1 μg/ml of phytohaemagglutinin and incubated for 24 h in an incubator at 37° C. After addition of 1 μCurie of radioactive ^3H-thymidine, the cells were incubated for a further 18 h, and the incorporated radioactivity was then measured in a scintillation counter (Canberra-Packard).

Compound | relative antioxidant effect [1] | apoptosis-inducing activity among individual flavonoids [2] | proliferation-inhibiting effect among individual flavonoids [3]
O=C1O[C@H]([C@@H](O)CO)C(O)=C1O [Ascorbic acid] | 1.1 | – | –
Cc1c(C)c2c(c(C)c1O)CCC(C)(C(=O)O)O2 (stereo not shown) [Trolox] | 1.0 | – | –
O=c1cc(-c2ccc(O)c(O)c2)oc2cc(O)cc(O)c12 [luteolin] | – | strongest apoptosis-inducing activity | strongest proliferation-inhibiting effect
